Data reported in patent US20100159030A1, “METHODS FOR DETECTING AND MODULATING THE SENSITIVITY OF TUMOR CELLS TO ANTI-MITOTIC AGENTS AND FOR MODULATING TURMORGENICITY” (NewSouth Innovations Pty Limited, priority 2007, published 2010).
Like-named read-outs stand apart in the source and are kept apart here.

Experiments:
NSCLC H460 cells = assay: Drug-treated clonogenic assay (surviving fraction, ID50) on siRNA/shRNA-transfected cells; assay type: cell-based, Human; conditions: for IC50: Homo sapiens; for change in drug sensitivity (clonogenic survival): H460
Method: (§1) Cells were transfected for 24 h and approximately 600 cells (for Calu-6) or 150 cells (for H460) were seeded into each well of a 6-well plate and allowed to attach for 4-6 h. The cell lines used in this study were not subject to prior drug selection, and are likely to represent intrinsic drug resistance observed in lung carcinoma.
(§2) Cells were then treated with increasing concentrations of various anti-mitotic drugs. Following a 3-day incubation at 37° C., the drug-containing medium was removed and replaced with fresh complete medium. Medium was changed at 3-4 day intervals for 7 to 10 days until visible colonies formed. […] Surviving colonies were simultaneously fixed and stained with 0.5% crystal violet in methanol, rinsed with water to remove excess stain and air-dried overnight.
(§3) The colonies in each well were manually counted, and the results were presented as surviving fraction according to the formula: surviving fraction was calculated as follows: colony number/(number of cells seeded×plating efficiency), where plating efficiency is equivalent to the colony number divided by the number of cells seeded in the drug-free medium. Dose-response curves were plotted for each drug-cell line combination and inhibitory dose (ID50) values were extrapolated from this curve using GraphPad Prism program (GraphPad Software, version 4, San Diego, Calif.). ID50 was defined as the concentration of the drug required to reduce the number of colonies in drug-treated wells to 50% of that of the relevant untreated control wells. The ID50 values were the means of at least four independent experiments.
(§4) To quantitate any change in drug sensitivity, drug treated clonogenic assays were performed. Twenty-four hours after siRNA transfection, cells were harvested and plated into 6-well plates for 6 h, prior to the addition of various drugs as indicated in the figure legends. After 72 h incubation, the drug-containing media was removed and replaced with complete growth media. Medium was changed every 3 days for 7 to 10 days until visible colonies formed. Colonies were simultaneously fixed and stained with 0.5% crystal violet in methanol, and manually counted. Individual stained colonies in each well were counted and the surviving fraction was calculated as follows: colony number/(number of cells seeded×plating efficiency), where plating efficiency equals the colony number divided by the number of cells seeded in drug-free media.

Calu-6 cells [1] = assay: Drug-treated clonogenic assay on siRNA-transfected cells; assay type: cell-based, Human
Method: as §1, §2, §3, §4

Calu-6 cells [2] = assay: Immunofluorescent staining of microtubules (α-tubulin) after drug treatment; assay type: cell-based, Human; conditions: 1 h, vs control
Method: Transfected Calu-6 cells were grown on sterile chamber slides until 60-70% confluent. Cells were then treated with paclitaxel and vincristine for 1 h at 10 nM. Cells were fixed in methanol and processed for staining as previously described (Don et al. (2004) supra) with minor modifications. Fixed cells were stained with α-tubulin (1:400 in 5% FCS/PBS, Sigma) for 30 min followed by Cy2 anti-mouse fluorescent tagged antibody (1:1,000 in 5% FCS/PBS, GE Healthcare). Slides were mounted on a coverslip using DAPI II Counterstain (Vysis Inc., Downers Grove, Ill.). Slides were viewed using a Zeiss Axioplan 2 Immunofluorescence Microscope (Mannheim, Germany) with Image-Pro® Plus 4.1 software (Media Cybernetics, L.P., Silver Spring, Md.).
To assess the effects of βIII downregulation on microtubule organization, immunofluorescence staining was performed on transfected Calu-6 cells as follows. Briefly, siRNA transfected cells were plated in glass chamber slides and allowed to reach 70% confluence. Cells were then treated with 10 nM of paclitaxel or vincristine for 1 hour. Drug was then removed by washing cells with PBS and blocked in 10% FCS/PBS. For dual staining, cells were first labelled with an antibody to class III β-tubulin which was exposed to cells incubated at 37° C. for 30 minutes in a humidified chamber. Following washes in 0.1% Tween 20/PBS at room temperature, the slides were incubated with Cy3 anti-mouse fluorescent-tagged antibody (GE Healthcare) for 40 minutes in a humidified chamber in the dark at room temperature. Following incubation, the slides were washed again in 0.1% Tween 20/PBS. This was then followed by staining with α-tubulin and Cy2 anti-mouse fluorescent tagged antibody (GE Healthcare). Slides were mounted on a coverslip using DAPI II Counterstain (Vysis Inc., Downers Grove, Ill.). Immunofluorescence microscopy was performed and images were captured using a Sensicam Charged Coupled Device camera (PCO Imaging, Kelheim, Bavaria, Germany) and the Image-Pro® Plus 4.1 software (Media Cybernetics, L.P., Silver Spring, Md.).

H460 cells = assay: Apoptosis induction, Annexin V-FITC flow cytometry; assay type: cell-based, Human; conditions: 48 h
Method: Annexin V-FITC staining followed by flow cytometry analysis was performed to address whether the increase in the sub-G1 population following exposure to tubulin-binding agents in the βIII-tubulin siRNA treated cells was related to an increase in apoptosis induction. Apoptosis induction was determined by transfecting H460 cells with siRNA for 72 h and harvesting (adherent and suspension) cells 48 h after drug treatment, as previously described in Pasquier et al., Mol Cancer Ther 2004; 3:1301-10. Briefly, 1×10^5 cells were incubated with Annexin V-FITC and propidium iodide for 15 min in the dark (Becton-Dickinson), immediately followed by flow cytometry using a FACSCalibur (Becton-Dickinson). Cytogram analysis was performed using CellQuest® software.

CCRF-CEM Leukaemia cells = assay type: cell-based; conditions: 2ME2-resistant sublines
Text: The tubulin-binding agent 2-methoxyestradiol (2ME2) binds to β-tubulin near the colchicine-binding site, inhibits microtubule polymerization, and induces mitotic arrest. CCRF-CEM Leukaemia cells that display increasing resistance to 2ME2 were selected, and four of the highly 2ME2 resistant leukaemia sublines were chosen for detailed analysis.

[3] = class II β-tubulin siRNA knockdown vs controls
[4] = class IVb β-tubulin siRNA knockdown vs controls

Work on CC(=O)O[C@H]1C(=O)[C@@]2(C)[C@H]([C@H](OC(=O)c3ccccc3)[C@]3(O)C[C@H](OC(=O)[C@H](O)[C@@H](NC(=O)c4ccccc4)c4ccccc4)C(C)=C1C3(C)C)[C@]1(OC(C)=O)CO[C@@H]1C[C@@H]2O [Paclitaxel, paclitaxel] yielded an IC50 (NSCLC H460 cells; NCI-H460, Table 2, 27-mer βIII siRNA Sequence-8 H460 cells, read-out: ID50 ± SEM) of 1.7 ± 0.043 nM, an IC50 (NSCLC H460 cells; NCI-H460, Table 2, 27-mer βIII siRNA Sequence-11 H460 cells, read-out: ID50 ± SEM) of 1.78 ± 0.07 nM and an IC50 (NSCLC H460 cells; NCI-H460, Table 2, Ctrl-1 (27-mer control siRNA) H460 cells, read-out: ID50 ± SEM) of 2.89 ± 0.165 nM. The IC50 (NSCLC H460 cells; NCI-H460, Table 2, mock-transfected H460 cells, read-out: ID50 ± SEM) was 2.63 ± 0.136 nM, the IC50 (NSCLC H460 cells; NCI-H460, Table 3, H460 Ctrl clone 1, read-out: Paclitaxel ID50 ± SEM) was 2.75 ± 0.131 nM and the IC50 (NSCLC H460 cells; NCI-H460, Table 3, H460 Ctrl clone 2, read-out: Paclitaxel ID50 ± SEM) was 2.83 ± 0.093 nM. It also gave an IC50 (NSCLC H460 cells; NCI-H460, Table 3, H460 βIII shRNA clone 4, read-out: Paclitaxel ID50 ± SEM) of 1.36 ± 0.087 nM, an IC50 (NSCLC H460 cells; NCI-H460, Table 3, H460 βIII shRNA clone 59, read-out: Paclitaxel ID50 ± SEM) of 1.78 ± 0.07 nM and an IC50 (NSCLC H460 cells; NCI-H460, Table 3, H460 βIII shRNA clone 60, read-out: Paclitaxel ID50 ± SEM) of 1.58 ± 0.095 nM. For the same compound, the “RS (relative sensitivity)” value (NSCLC H460 cells; Table 2, 27-mer βIII siRNA Sequence-8 H460 cells) was “(1.55, <0.0001***)”, the “RS (relative sensitivity)” value (NSCLC H460 cells; Table 2, 27-mer βIII siRNA Sequence-11 H460 cells) was “(1.42, 0.0001***)” and the “RS (relative sensitivity)” value (NSCLC H460 cells; Table 2, Ctrl-1 H460 cells) was “(0.91, NS)”. For the same compound, the “RS (relative sensitivity)” value (NSCLC H460 cells; Table 3, Ctrl clone 2 compared to ctrl clone 1) was “(0.97, NS)”, the “RS (relative sensitivity)” value (NSCLC H460 cells; Table 3, βIII shRNA clone 4 compared to ctrl clone 1) was “(2.03, <0.0001***)” and the “RS (relative sensitivity)” value (NSCLC H460 cells; Table 3, βIII shRNA clone 59 compared to ctrl clone 1) was “(1.55, <0.0001***)”. The “RS (relative sensitivity)” value (NSCLC H460 cells; Table 3, βIII shRNA clone 60 compared to ctrl clone 1) was “(1.74, <0.0001***)”, the “change in drug sensitivity (clonogenic survival)” value (from here on “change in drug sensitivity”) (NSCLC H460 cells; [3]) was “did not significantly potentiate the cytotoxicity” and the “change in drug sensitivity” value (NSCLC H460 cells; [4]) was “did not significantly enhance the cytotoxicity”. For the same compound, the “change in drug sensitivity” value (NSCLC H460 cells; βIII-tubulin siRNA silencing vs controls) was “significant increase in sensitivity”, the “change in drug sensitivity” value (Calu-6 cells [1]; [3]) was “did not significantly potentiate the cytotoxicity” and the “change in drug sensitivity” value (Calu-6 cells [1]; [4]) was “no effect on sensitivity”. The microtubule morphology (Calu-6 cells [2]; βII siRNA-transfected Calu-6, 10 nM drug) was “did not appear significantly different”, the microtubule morphology (Calu-6 cells [2]; βIII siRNA-transfected Calu-6, 10 nM drug) was “extensive disruption of the microtubule cytoskeleton” and the “concentration from which apoptosis is induced” value (H460 cells; control siRNA treated cells) was no less than 5 nM. For the same compound, the “concentration from which apoptosis is induced” value (H460 cells; βIII-tubulin siRNA treated cells) was no less than 1 nM, the “percentage of apoptotic cells” value (H460 cells; βIII-tubulin siRNA vs control siRNA cells, paclitaxel 1, 2, 5 nM, cisplatin 0.4 or 1 μM) was “significantly higher” and the “cross-resistance of the 2ME2-resistant cells” value (CCRF-CEM Leukaemia cells) was “not cross resistant”.
